In test [1] the test system is MCF-7, HepG2, and HCT-116 cell lines. Further details: method as in doi:10.2174/1570178617666200320104923. Conditions: read-out: IC50 inhibition of cell proliferation (range over cell lines); cited from earlier work.
The test system of test [2] is HCT-116 colorectal carcinoma cell line. Further details: method as in doi:10.2174/1570178617666200320104923. Conditions: Figure 1 design strategy, earlier lead; cited from earlier work.
Test [3] has as its system MCF-7 breast adenocarcinoma cell line. Further details: method as in doi:10.2174/1570178617666200320104923. The conditions noted are these: Figure 1 design strategy, earlier lead; cited from earlier work.
For test [4], the system named is HepG2 hepatocellular carcinoma cell line. In words: Sulforhodamine B (SRB) cytotoxicity assay, HepG2. It is filed as cell-based. Conditions: Homo sapiens, 72 h. The protocol: (§1) Human hepatocellular carcinoma cell line (HepG-2, ATCC HB-8065), colorectal adenocarcinoma cell line (HCT-116, ATCC CCL-247), and breast adenocarcinoma cell line (MCF-7, ATCC HTB-22) were obtained from the American type culture collection (ATCC). Cells were maintained in RPMI-1640 supplemented with (100 μg/ml) penicillin (100 units/ml) and heat-inactivated fetal bovine serum (10% v/v) in a humidified, 5% (v/v) CO2 atmosphere at 37°C [13].
(§2) The cytotoxicity of the different compounds was tested against human tumor cells using the sulforhodamine B assay (SRB). Healthy growing cells were cultured in a 96-well tissue culture plate (3000 cells/well) for 24 hours to allow attachment of the cells to the plate before treatment with the tested compounds. […] Triplicate wells were incubated with different concentrations for 72 h and subsequently fixed with TCA (10% w/v) for 1 h at 4°C. […] After drying overnight, the SRB-stained cells were dissolved with tris-HCl and the color intensity was measured in a microplate reader at 540 nm.
(§3) The SRB assay is the “gold-standard” assay and is extensively used in the high-throughput screening program at the National Cancer Institute (NCI), USA. The SRB uses an aminoxanthene dye, which readily stains the cells through binding with the basic amino acids of cellular proteins. […]
For orientation: The SRB assay estimates cell density from bound dye.

In test [5] the test system is MCF-7 breast adenocarcinoma cell line. The experiment in a line: Sulforhodamine B (SRB) cytotoxicity assay, MCF-7. It is filed as cell-based. The conditions noted are these: Homo sapiens, MCF7, 72 h. The protocol:
as §1, §2, §3

The subject of test [6] is HCT-116 colorectal carcinoma cell line. In words: Sulforhodamine B (SRB) cytotoxicity assay, HCT-116. It counts as cell-based. Conditions: Homo sapiens, 72 h. The protocol:
as §1, §2, §3

Read-outs that look alike come from different tables or passages of the source.

As to `CC1=NN(C(=O)c2ccncc2)C(=O)C1=NNc1ccc([N+](=O)[O-])cc1` [1-isonicotinoyl-3-methyl-4-[2-(4-nitrophenyl)hydrazono]-2-pyrazolin-5-one], in test [1], the IC50 was 0.2 to 3.4 µM. With `COc1ccc(/N=N/c2c(C)nn(C(=O)c3ccncc3)c2C)cc1` [Aryldiazenyl pyrazoles (ADP)], in test [2], the IC50 is 61.3 µM. Regarding `CC1=NN(C(=O)c2ccncc2)C(=O)/C1=N/Nc1ccc([N+](=O)[O-])cc1` [Arylhydrazono pyrazoles (AHP)], in test [3], the IC50 is 0.2 µM. Take `COc1cccc2c1C(=O)c1c(O)c3c(c(O)c1C2=O)C[C@@](O)(C(=O)CO)C[C@@H]3O[C@H]1C[C@H](N)[C@H](O)[C@H](C)O1` [Doxorubicin]: the IC50 is 3.9 ± 0.06 µM in test [4], 4.7 ± 0.08 µM in test [5] and 4.4 ± 0.04 µM in test [6].

These data come from article PMC8277517, “Anticolon Cancer Properties of Pyrazole Derivatives Acting through Xanthine Oxidase Inhibition” (Journal of Oncology, 2021).
